From the supplement of paper PMC10307832

Legend:
Assay in all cases: relative viability (nuclei count vs DMSO), 5 days (fraction); higher = more cells survive
Dovitinib + Trametinib = compound: CN1CCN(c2ccc3nc(-c4c(N)c5c(F)cccc5[nH]c4=O)[nH]c3c2)CC1 [Dovitinib] + CC(=O)Nc1cccc(-n2c(=O)n(C3CC3)c(=O)c3c(Nc4ccc(I)cc4F)n(C)c(=O)c(C)c32)c1 [Trametinib] (partner 0.02 µM)
Outline: (§1)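 Lung cancer cell lines were seeded in 1536-well plates and dosed by pin tool the next day, with either a single drug or a fixed anchor-drug dose combined with five library-drug doses (not always all listed) spaced in √10 steps. Five days later, one step fixed the cells and stained their nuclei (final 0.05% Triton X-100, 1% formaldehyde, 1 ug/ml Hoechst), and nuclei were counted on 4× images. Relative viability is the nuclei count in treated wells divided by the count in vehicle wells, and each value is the median of duplicate plates.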

Dovitinib + OSI-027 = compound: CN1CCN(c2ccc3nc(-c4c(N)c5c(F)cccc5[nH]c4=O)[nH]c3c2)CC1 [Dovitinib] + COc1cccc2cc(-c3nc([C@H]4CC[C@H](C(=O)O)CC4)n4ncnc(N)c34)[nH]c12 [OSI-027] (partner 0.5 µM)
Outline: as §1

Dovitinib + Lapatinib = compound: CN1CCN(c2ccc3nc(-c4c(N)c5c(F)cccc5[nH]c4=O)[nH]c3c2)CC1 [Dovitinib] + CS(=O)(=O)CCNCc1ccc(-c2ccc3ncnc(Nc4ccc(OCc5cccc(F)c5)c(Cl)c4)c3c2)o1 [Lapatinib] (partner 2 µM)
Outline: as §1

Dovitinib + Linsitinib = compound: CN1CCN(c2ccc3nc(-c4c(N)c5c(F)cccc5[nH]c4=O)[nH]c3c2)CC1 [Dovitinib] + C[C@]1(O)C[C@@H](c2nc(-c3ccc4ccc(-c5ccccc5)nc4c3)c3c(N)nccn32)C1 [Linsitinib] (partner 1 µM)
Outline: as §1

Row | Cell Line | relative viability (Dovitinib + Trametinib; first compound 0.02 µM) | relative viability (Dovitinib + Trametinib; first compound 0.06325 µM) | relative viability (Dovitinib + Trametinib; first compound 0.2 µM) | relative viability (Dovitinib + Trametinib; first compound 0.6325 µM) | relative viability (Dovitinib + Trametinib; first compound 2 µM) | relative viability (Dovitinib + OSI-027; first compound 0.02 µM) | relative viability (Dovitinib + OSI-027; first compound 0.06325 µM) | relative viability (Dovitinib + OSI-027; first compound 0.2 µM) | relative viability (Dovitinib + OSI-027; first compound 0.6325 µM) | relative viability (Dovitinib + OSI-027; first compound 2 µM) | relative viability (Dovitinib + Lapatinib; first compound 0.02 µM) | relative viability (Dovitinib + Lapatinib; first compound 0.06325 µM) | relative viability (Dovitinib + Lapatinib; first compound 0.6325 µM) | relative viability (Dovitinib + Lapatinib; first compound 2 µM) | relative viability (Dovitinib + Linsitinib; first compound 0.02 µM) | relative viability (Dovitinib + Linsitinib; first compound 0.06325 µM) | relative viability (Dovitinib + Linsitinib; first compound 0.6325 µM) | relative viability (Dovitinib + Linsitinib; first compound 2 µM) | relative viability (Dovitinib + Lapatinib; first compound 0.2 µM) | relative viability (Dovitinib + Linsitinib; first compound 0.2 µM)
1 | 201T | 0.706 | 0.701 | 0.699 | 0.748 | 0.674 | 0.704 | 0.747 | 0.748 | 0.898 | 0.724 | 0.95 | 0.993 | 1.01 | 0.968 | 0.988 | 0.944 | 0.945 | 0.995 |  | 
2 | A549 |  |  |  |  |  |  |  |  |  |  | 1 | 0.956 | 0.817 | 0.887 | 0.654 | 0.573 | 0.586 | 0.632 | 0.893 | 0.651
3 | A-427 | 0.724 | 0.705 | 0.709 | 0.768 | 0.72 | 0.524 | 0.432 | 0.455 | 0.452 | 0.399 | 1.02 | 0.952 | 0.975 | 1.05 | 1.05 | 1.07 | 1.09 | 1.08 | 1.01 | 1.14
4 | ABC-1 |  |  |  |  |  | 0.445 | 0.505 | 0.48 | 0.448 | 0.51 | 1.15 | 1.28 | 1.18 | 0.969 | 0.848 | 0.865 | 1.02 | 0.618 | 1.02 | 0.842
5 | BEN | 0.976 | 0.888 | 1.01 | 1.05 | 1.04 | 0.319 | 0.302 | 0.342 | 0.312 | 0.287 | 0.533 | 0.822 | 0.771 | 0.808 | 0.874 | 0.873 | 0.922 | 0.898 | 0.835 | 1.07
6 | CAL-12T | 0.491 | 0.34 | 0.413 | 0.36 | 0.371 | 0.839 | 0.768 | 0.913 | 0.569 | 0.742 | 0.709 | 0.501 | 0.618 | 0.986 | 0.839 | 0.894 | 0.784 | 0.82 | 0.713 | 0.756
7 | COR-L23 | 0.568 | 0.641 | 0.601 | 0.532 | 0.628 | 0.681 | 0.856 | 0.835 | 0.791 | 0.823 | 0.918 | 0.983 | 1.01 | 0.882 | 0.876 | 1.05 | 0.896 | 1.04 | 1.04 | 0.943
8 | COR-L 105 | 0.533 | 0.405 | 0.441 | 0.459 | 0.577 | 0.722 | 0.637 | 0.649 | 0.659 | 0.784 | 0.39 | 0.367 | 0.327 | 0.407 | 1.04 | 0.912 | 0.855 | 0.961 | 0.341 | 0.834
9 | Calu-6 |  |  |  |  |  |  |  |  |  |  | 0.99 | 1.04 | 1.08 | 1.09 | 0.947 | 0.955 | 0.93 | 0.887 | 1.11 | 0.935
10 | ChaGo-K-1 | 0.868 | 0.875 | 0.936 | 0.885 | 0.778 | 0.549 | 0.556 | 0.635 | 0.542 | 0.614 |  |  |  |  |  |  |  |  |  | 
11 | EBC-1 |  |  |  |  |  |  |  |  |  |  | 0.25 | 0.228 | 0.194 | 0.216 | 0.855 | 0.861 | 0.884 | 0.912 | 0.222 | 0.85
12 | EKVX | 0.395 | 0.32 | 0.332 | 0.351 | 0.327 | 0.724 | 0.717 | 0.731 | 0.731 | 0.702 | 0.252 | 0.189 | 0.21 | 0.21 | 1.01 | 1.05 | 1.02 | 0.978 | 0.257 | 1
13 | EMC-BAC-2 | 1.2 | 0.811 | 0.986 | 0.873 | 0.945 | 0.484 | 0.27 | 0.409 | 0.381 | 0.461 | 0.886 | 0.839 | 0.807 | 0.923 | 0.799 | 0.799 | 0.797 | 0.843 | 0.898 | 0.825
14 | EPLC-272H | 0.306 | 0.269 | 0.298 | 0.269 | 0.303 | 0.258 | 0.336 | 0.3 | 0.28 | 0.241 | 0.992 | 0.939 | 1.1 | 1.23 | 1.17 | 1.16 | 1.11 | 1.16 | 0.94 | 1.2
15 | H3255 | 0.699 | 0.578 | 0.746 | 0.614 | 0.566 | 0.637 | 0.601 | 0.627 | 0.716 | 0.585 | 0.217 | 0.266 | 0.266 | 0.255 | 1 | 0.937 | 1.02 | 1.02 | 0.288 | 1.01
16 | HARA | 0.89 | 0.924 | 0.484 | 0.827 | 0.878 | 0.628 | 0.438 | 0.456 | 0.538 | 0.474 | 0.914 | 0.716 | 0.805 | 0.602 | 1 | 0.943 | 0.968 | 0.859 | 0.564 | 0.924
17 | HCC-15 | 0.434 | 0.342 | 0.369 | 0.341 | 0.377 | 0.658 | 0.68 | 0.741 | 0.656 | 0.711 | 0.853 | 0.857 | 0.874 | 0.845 | 0.952 | 0.831 | 0.879 | 0.941 | 0.91 | 0.938
18 | HCC-44 | 1.06 | 1.07 | 1.1 | 1.07 | 1.02 | 0.538 | 0.578 | 0.569 | 0.485 | 0.524 | 1.01 | 1.02 | 0.938 | 1.01 | 0.681 | 0.667 | 0.773 | 0.628 | 1.03 | 0.681
